This series addresses ATP-dependent translocase ABCB1 (Mus musculus, UniProt P21447). Nature of the series: TP_TRANSPORTER: increase in brain concentration in mdr1a(-/-) mouse. It counts as functional, organism-based. The conditions noted are these: in vivo.

This passage reports Activity results from ChEMBL document CHEMBL2074361, “Effect of mdr1a P-glycoprotein gene disruption, gender, and substrate concentration on brain uptake of selected compounds” (Pharm Res, 2001).

SMILES strings stand for the structures.

Chain of ATP-dependent translocase ABCB1 (P21447 whole entry): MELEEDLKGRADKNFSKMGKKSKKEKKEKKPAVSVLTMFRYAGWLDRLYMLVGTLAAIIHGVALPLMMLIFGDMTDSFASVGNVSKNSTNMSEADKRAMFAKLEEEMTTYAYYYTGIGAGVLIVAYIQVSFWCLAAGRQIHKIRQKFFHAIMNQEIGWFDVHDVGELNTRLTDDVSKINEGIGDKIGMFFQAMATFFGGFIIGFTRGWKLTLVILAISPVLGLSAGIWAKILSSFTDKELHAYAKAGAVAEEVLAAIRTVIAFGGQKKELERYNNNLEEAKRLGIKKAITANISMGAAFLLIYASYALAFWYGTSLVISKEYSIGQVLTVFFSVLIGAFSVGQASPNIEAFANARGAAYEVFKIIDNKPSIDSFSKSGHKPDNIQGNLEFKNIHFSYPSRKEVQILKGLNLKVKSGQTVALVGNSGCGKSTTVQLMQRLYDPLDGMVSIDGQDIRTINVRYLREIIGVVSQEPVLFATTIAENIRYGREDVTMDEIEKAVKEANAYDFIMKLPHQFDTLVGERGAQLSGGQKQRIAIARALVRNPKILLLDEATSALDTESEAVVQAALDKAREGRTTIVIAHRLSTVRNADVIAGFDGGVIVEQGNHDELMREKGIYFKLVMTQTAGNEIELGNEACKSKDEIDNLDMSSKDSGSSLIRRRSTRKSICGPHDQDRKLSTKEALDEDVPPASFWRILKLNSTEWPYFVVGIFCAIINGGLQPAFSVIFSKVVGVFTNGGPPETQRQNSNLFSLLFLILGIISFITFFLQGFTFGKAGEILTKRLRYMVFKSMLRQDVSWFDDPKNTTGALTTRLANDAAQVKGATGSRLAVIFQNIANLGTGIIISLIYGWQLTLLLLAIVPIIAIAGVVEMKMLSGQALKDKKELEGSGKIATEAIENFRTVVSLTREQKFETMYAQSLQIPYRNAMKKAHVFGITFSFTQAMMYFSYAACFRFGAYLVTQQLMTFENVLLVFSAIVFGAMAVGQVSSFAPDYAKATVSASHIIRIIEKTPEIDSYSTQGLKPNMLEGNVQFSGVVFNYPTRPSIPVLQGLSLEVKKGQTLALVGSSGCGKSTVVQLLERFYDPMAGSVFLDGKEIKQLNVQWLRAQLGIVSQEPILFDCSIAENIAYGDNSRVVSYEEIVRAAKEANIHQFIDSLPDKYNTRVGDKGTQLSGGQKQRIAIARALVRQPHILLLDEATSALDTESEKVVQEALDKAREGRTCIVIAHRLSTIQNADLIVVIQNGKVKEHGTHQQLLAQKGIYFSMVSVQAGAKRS

Consider `CN1CC[C@]23c4c5ccc(O)c4O[C@H]2[C@@H](O)C=C[C@H]3[C@H]1C5` [MORPHINE], for which the Activity entry was “substrate [+]”. `C=C[C@H]1C[N@@]2CC[C@H]1C[C@@H]2[C@@H](O)c1ccnc2ccc(OC)cc12` [QUINIDINE]: the Activity entry was “substrate [+]”.
